Measurements as given in the supplement of paper PMC10307832.

Columns and labels:
Test in all cases: relative viability (nuclei count vs DMSO), 5 days (fraction); higher = more cells survive
[1] = tested on: 201T
Procedure, shortened: (§1)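 Lung cancer cell lines in 1536-well plates got either a single drug or a fixed anchor-drug dose together with five library-drug doses (not always all listed) in √10 steps, by pin tool, on the day after seeding. Nuclei were counted after 5 days, and relative viability is the treated-to-vehicle ratio of nuclei counts. Values are medians of duplicate plates.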

[2] = tested on: A-427
Procedure, shortened: as §1

[3] = tested on: COR-L23
Procedure, shortened: as §1

[4] = tested on: HARA
Procedure, shortened: as §1

[5] = tested on: HCC-78
Procedure, shortened: as §1

[6] = tested on: LCLC-103H
Procedure, shortened: as §1

[7] = tested on: LCLC-97TM1
Procedure, shortened: as §1

[8] = tested on: LK-2
Procedure, shortened: as §1

[9] = tested on: LOU-NH91
Procedure, shortened: as §1

[10] = tested on: LXF-289
Procedure, shortened: as §1

[11] = tested on: NCI-H1650
Procedure, shortened: as §1

[12] = tested on: NCI-H1651
Procedure, shortened: as §1

[13] = tested on: NCI-H1793
Procedure, shortened: as §1

[14] = tested on: NCI-H2347
Procedure, shortened: as §1

[15] = tested on: NCI-H23
Procedure, shortened: as §1

[16] = tested on: NCI-H2405
Procedure, shortened: as §1

[17] = tested on: NCI-H520
Procedure, shortened: as §1

[18] = tested on: NCI-H522
Procedure, shortened: as §1

[19] = tested on: NCI-H647
Procedure, shortened: as §1

[20] = tested on: NCI-H838
Procedure, shortened: as §1

[21] = tested on: PC-3 [JPC-3]
Procedure, shortened: as §1

[22] = tested on: RERF-LC-KJ
Procedure, shortened: as §1

[23] = tested on: UMC-11
Procedure, shortened: as §1

## CN1CCN(CCOc2cc(OC3CCOCC3)c3c(Nc4c(Cl)ccc5c4OCO5)ncnc3c2)CC1 [Saracatinib] + Nc1ncn([C@H]2C[C@H](O)[C@@H](CO)O2)c(=O)n1 [Decitabine] (partner 2 µM)
[1]; first compound 0.02 µM
  relative viability: 0.832
[1]; first compound 0.2 µM
  relative viability: 0.644
[1]; first compound 0.6325 µM
  relative viability: 0.75
[1]; first compound 2 µM
  relative viability: 0.71
[2]; first compound 0.02 µM
  relative viability: 0.533
[2]; first compound 0.2 µM
  relative viability: 0.511
[2]; first compound 0.6325 µM
  relative viability: 0.593
[2]; first compound 2 µM
  relative viability: 0.526
[3]; first compound 0.02 µM
  relative viability: 0.44
[3]; first compound 0.2 µM
  relative viability: 0.385
[3]; first compound 0.6325 µM
  relative viability: 0.419
[3]; first compound 2 µM
  relative viability: 0.335
[4]; first compound 0.02 µM
  relative viability: 0.605
[4]; first compound 0.2 µM
  relative viability: 0.367
[4]; first compound 0.6325 µM
  relative viability: 0.465
[4]; first compound 2 µM
  relative viability: 0.381
[5]; first compound 0.02 µM
  relative viability: 0.524
[5]; first compound 0.6325 µM
  relative viability: 0.736
[5]; first compound 2 µM
  relative viability: 0.686
[6]; first compound 0.02 µM
  relative viability: 0.774
[6]; first compound 0.2 µM
  relative viability: 0.653
[6]; first compound 0.6325 µM
  relative viability: 0.72
[6]; first compound 2 µM
  relative viability: 0.716
[7]; first compound 0.02 µM
  relative viability: 0.244
[7]; first compound 0.2 µM
  relative viability: 0.18
[7]; first compound 0.6325 µM
  relative viability: 0.215
[7]; first compound 2 µM
  relative viability: 0.178
[8]; first compound 0.02 µM
  relative viability: 0.337
[8]; first compound 0.2 µM
  relative viability: 0.23
[8]; first compound 0.6325 µM
  relative viability: 0.172
[8]; first compound 2 µM
  relative viability: 0.201
[9]; first compound 0.02 µM
  relative viability: 0.778
[9]; first compound 0.2 µM
  relative viability: 0.665
[9]; first compound 0.6325 µM
  relative viability: 0.715
[9]; first compound 2 µM
  relative viability: 0.641
[10]; first compound 0.02 µM
  relative viability: 0.327
[10]; first compound 0.2 µM
  relative viability: 0.314
[10]; first compound 0.6325 µM
  relative viability: 0.387
[10]; first compound 2 µM
  relative viability: 0.36
[11]; first compound 0.02 µM
  relative viability: 0.428
[11]; first compound 0.2 µM
  relative viability: 0.519
[11]; first compound 0.6325 µM
  relative viability: 0.431
[11]; first compound 2 µM
  relative viability: 0.365
[12]; first compound 0.02 µM
  relative viability: 0.734
[12]; first compound 0.2 µM
  relative viability: 0.375
[12]; first compound 0.6325 µM
  relative viability: 0.667
[12]; first compound 2 µM
  relative viability: 0.626
[13]; first compound 0.02 µM
  relative viability: 0.543
[13]; first compound 0.2 µM
  relative viability: 0.338
[13]; first compound 0.6325 µM
  relative viability: 0.504
[13]; first compound 2 µM
  relative viability: 0.403
[14]; first compound 0.02 µM
  relative viability: 0.629
[14]; first compound 0.2 µM
  relative viability: 0.538
[14]; first compound 0.6325 µM
  relative viability: 0.595
[14]; first compound 2 µM
  relative viability: 0.578
[15]; first compound 0.02 µM
  relative viability: 0.208
[15]; first compound 0.6325 µM
  relative viability: 0.29
[15]; first compound 2 µM
  relative viability: 0.212
[16]; first compound 0.02 µM
  relative viability: 0.698
[16]; first compound 0.2 µM
  relative viability: 0.717
[16]; first compound 0.6325 µM
  relative viability: 0.583
[16]; first compound 2 µM
  relative viability: 0.4
[17]; first compound 0.02 µM
  relative viability: 0.544
[17]; first compound 0.2 µM
  relative viability: 0.499
[17]; first compound 0.6325 µM
  relative viability: 0.434
[17]; first compound 2 µM
  relative viability: 0.346
[18]; first compound 0.02 µM
  relative viability: 0.737
[18]; first compound 0.2 µM
  relative viability: 0.665
[18]; first compound 0.6325 µM
  relative viability: 0.705
[18]; first compound 2 µM
  relative viability: 0.627
[19]; first compound 0.02 µM
  relative viability: 0.438
[19]; first compound 0.2 µM
  relative viability: 0.313
[19]; first compound 0.6325 µM
  relative viability: 0.468
[19]; first compound 2 µM
  relative viability: 0.433
[20]; first compound 0.02 µM
  relative viability: 0.45
[20]; first compound 0.2 µM
  relative viability: 0.417
[20]; first compound 0.6325 µM
  relative viability: 0.467
[20]; first compound 2 µM
  relative viability: 0.411
[21]; first compound 0.02 µM
  relative viability: 0.824
[21]; first compound 0.2 µM
  relative viability: 0.711
[21]; first compound 0.6325 µM
  relative viability: 0.695
[21]; first compound 2 µM
  relative viability: 0.555
[22]; first compound 0.02 µM
  relative viability: 0.688
[22]; first compound 0.2 µM
  relative viability: 0.657
[22]; first compound 0.6325 µM
  relative viability: 0.734
[22]; first compound 2 µM
  relative viability: 0.722
[23]; first compound 0.02 µM
  relative viability: 0.686
[23]; first compound 0.2 µM
  relative viability: 0.667
[23]; first compound 0.6325 µM
  relative viability: 0.453
[23]; first compound 2 µM
  relative viability: 0.533
